# Experimental data: EP4623908A1, “USE OF (-)-EPIGALLOCATECHIN GALLATE COMPOUND” (CF Pharmtech, Inc., priority 2022, dated 2024)
# Where two headings read alike, the source gives them in different places.
# What was measured:
# [1] = Pharmacokinetics of low-dose tracheal nebulization and oral gavage in rat plasma and lungs (Example 3); format: in vivo, rats; conditions: for Lung AUC0-t / Lung Cmax: rat lung tissue, average
# Description: As described in Example 1, the administration methods of oral gavage or tracheal nebulization of different doses of EGCG solution in rats were used to study the pharmacokinetic parameters of the drug in the lungs. The tracheal nebulization doses were 0.05 mg/kg, 0.1 mg/kg, 0.2 mg/kg, and 0.4 mg/kg, with 6-8 rats per dose group. The oral gavage dose was 60 mg/kg, with 6 rats.
# The blood sampling method and sample processing were as described in Example 2. The blood collection time points for this experiment were 5 minutes, 2 hours, 6 hours, 8 hours, 10 hours, and 16 hours post-administration, with approximately […] of whole blood collected at each time point.
# [2] = Single-dose escalation study of nebulized inhalation solution in healthy volunteers, safety and pharmacokinetics (Example 7); format: in vivo; conditions: for subjects with local symptoms in the oropharynx and respiratory tract: nebulized inhalation solution, single dose
# Description: A randomized, double-blind, placebo-controlled clinical study was conducted with 22 healthy volunteers to evaluate the safety and tolerability of single-dose inhalation of EGCG nebulized solution, as well as pharmacokinetic characteristics, compared to placebo nebulized solution and oral EGCG capsules.
# Test group: EGCG nebulized inhalation solution (the EGCG nebulized solution containing EDTA as described in Example 6), with an initial concentration of 10mg/mL, diluted to different doses before administration.
# Oral control group: EGCG capsules, each weighing 150mg, with EGCG content approximately 94% of the total weight.
# Refer to Table 6 below. The oral control group was randomly assigned 4 volunteers to receive 600mg of EGCG capsules (4 capsules, approximately 564mg of EGCG).
# The EGCG nebulized inhalation treatment included 3 groups: • 1. 3mg dose group: 1mL of the starting drug solution was diluted to 1mg/mL, and 3mL was administered via the nebulizer. • 2. 10mg dose group: 1mL of the starting drug solution was diluted to 3.33mg/mL, and 3mL was administered via the nebulizer. • 3. 30mg dose group: The starting drug solution was not diluted, and 3mL was directly administered via the nebulizer.
# Each nebulized inhalation dose group was randomly assigned 6 volunteers, starting with the lowest dose. In each group, 2 volunteers were designated as sentinels (1:1 randomization, 1 in the EGCG nebulized inhalation group and 1 in the placebo group), observed for ≥24 hours, and the study investigator performed a safety assessment. After permission from the investigator, the remaining 4 volunteers in each group received their assigned treatment (3:1 randomization, 3 in the EGCG nebulized inhalation group and 1 in the placebo group). Table 6: Group Information for Oral Control and EGCG Nebulized Inhalation Administration Groups.
# Blood samples were collected from the subjects at 13 time points: pre-dose (within 1 hour before administration), and post-dose at 15 minutes, 30 minutes, 1 hour, 1.5 hours, 2 hours, 3 hours, 4 hours, 6 hours, 8 hours, 10 hours, 12 hours, and 24 hours. A total of 4mL of blood was collected at each time point, and plasma was extracted for pharmacokinetic (PK) testing, backup, and metabolite identification.
# Adverse event (AE) monitoring; physical examination; vital signs (body temperature, blood pressure, pulse, respiration), blood oxygen saturation; heart function; lung function.
# [3] = Drug concentration in rat plasma and lungs after tracheal nebulization and oral gavage (Example 2); format: in vivo, rats; conditions: for Cmax / AUC(0-t): plasma; for AUC(0-t): read-out: Plasma AUC0-t
# Description: As shown in Example 1, after inhalation (such as tracheal nebulization) administration of 1.6 mg/kg EGCG and oral gavage administration of 60 mg/kg EGCG, the AUC0-t in rat plasma were similar. Based on this, this example investigates the changes in drug concentration in rat plasma and lungs over time after a single lower dose of tracheal nebulization (0.8 mg/kg) compared to oral gavage (60 mg/kg) of EGCG. Both the tracheal nebulization and oral gavage groups consist of 5 rats each.
# 2.1 Blood Sampling Method: Blood was taken via femoral artery. Samples were taken at 30 minutes, 2 hours, 4 hours, and 6 hours post-administration (4 sampling points). After blood collection, 0.9 wt% physiological saline was used to lavage the lungs twice, then the entire lung was removed, dried with filter paper, and stored at -20°C until further analysis.
# 2.2 Plasma Sample Processing Method: 1 mL of plasma was mixed with 3 mL of ethyl acetate solution, vortexed, centrifuged, and the supernatant was evaporated to dryness. The residue was reconstituted with a reconstitution solution, vortexed, and 100 µL was used for analysis of plasma drug concentration.
# 2.3 Lung Tissue Sample Processing Method: Lung tissue samples were weighed, and 3 times the volume of physiological saline (w:v) was added to homogenize. 1 mL of the homogenate was mixed with 3 mL of ethyl acetate solution, vortexed, centrifuged, and the supernatant was evaporated to dryness. The residue was reconstituted with a reconstitution solution, vortexed, and 100 µL was used for analysis of lung drug concentration.
# [4] = Tracheal Nebulization (inh) 0.05 mg/kg
# [5] = Tracheal Nebulization (inh) 0.1 mg/kg
# [6] = Tracheal Nebulization (inh) 0.2 mg/kg
# [7] = Tracheal Nebulization (inh) 0.4 mg/kg
# [8] = rat, after oral gavage 60 mg/kg
# [9] = human plasma, after inhalation compared to oral administration
# [10] = inhaled, tracheal nebulization (inh.0.8mg/kg)
# [11] = tracheal nebulization (inh.0.8mg/kg)
smiles,measurement,setting,value
"O=C(O[C@@H]1Cc2c(O)cc(O)cc2O[C@@H]1c1cc(O)c(O)c(O)c1)c1cc(O)c(O)c(O)c1 [EGCG, (-)-Epigallocatechin gallate]",Cmax,"[1]; lung, inhaled or intranasal, rat, inhalation dose above 0.2 mg/kg, read-out: maximum drug concentration (Cmax) in the lungs",> 1000 ng/mL
same,Lung AUC0-t,[1]; [4],284.7 ng·h/mL
same,Lung Cmax,[1]; [4],79.6 ng/mL
same,Lung AUC0-t,[1]; [5],1031.4 ng·h/mL
same,Lung Cmax,[1]; [5],220.4 ng/mL
same,Lung AUC0-t,[1]; [6],3082.7 ng·h/mL
same,Lung Cmax,[1]; [6],1038.0 ng/mL
same,Lung AUC0-t,[1]; [7],11764.1 ng·h/mL
same,Lung Cmax,[1]; [7],3180.0 ng/mL
same,Lung AUC0-t,[1]; oral gavage (po) 60 mg/kg,226.4 ng·h/mL
same,Lung Cmax,[1]; oral gavage (po) 60 mg/kg,43.4 ng/mL
same,lung concentration,[1]; [8],less than 100 ng/mL
same,plasma drug concentrations,[1]; [8],less than 100 ng/mL
same,inhalation dose as fraction of the oral dose at comparable lung drug concentration,"[1]; rat, inh 0.05 mg/kg vs oral gavage 60 mg/kg",1/1200
same,peak concentration in the lungs of the oral administration,"[1]; rat, oral gavage 60 mg/kg",32 ng/mL
same,drug concentration in the lungs,"[1]; rat, tracheal nebulization of 0.1, 0.2, or 0.4 mg/kg, for up to 16 hours",greater than 50 ng/mL
same,overall tolerability,[2]; after nebulized inhalation 3mg/10mg/30mg,overall tolerability was good
same,"physical examination, vital signs, heart function, and lung function","[2]; all subjects (nebulized 3mg/10mg/30mg, oral capsules 600mg)",No significant abnormalities
same,inhalation Cmax relative to the oral Cmax,"[2]; human plasma, 10mg nebulized dose group vs oral capsules 600mg",about 1/227
same,Cmax level,[2]; [9],lower
same,time to reach peak plasma concentration (Tmax),[2]; [9],later
same,subjects with local symptoms in the oropharynx and respiratory tract,[2]; 3mg dose group,no subjects
same,subjects with local symptoms in the oropharynx and respiratory tract,"[2]; 10mg dose group, mild",1 out of 4
same,subjects with local symptoms in the oropharynx and respiratory tract,"[2]; 30mg dose group, mild",2 out of 4
same,Kp,"[3]; lung and plasma, inhaled, after inhalation 0.8 mg/kg, read-out: drug concentration in the lungs relative to that in plasma (higher)",100
same,Lung AUC0-t,[3]; oral gavage (po. 60mg/kg),115 ng·h/mL
same,Lung Cmax,[3]; oral gavage (po. 60mg/kg),34.5 ng/mL
same,Cmax,[3]; [10],153 ng/mL
same,AUC(0-t),[3]; [10],292 ng·h/mL
same,Cmax,[3]; oral gavage (po. 60mg/kg),46 ng/mL
same,AUC(0-t),[3]; oral gavage (po. 60mg/kg),136 ng·h/mL
same,Lung AUC0-t,[3]; [11],30891 ng·h/mL
same,Lung Cmax,[3]; [11],12720 ng/mL
